This is an account of results in patent US5550128A, “Enantiomers of gamma methylene 10-deaza aminopterin and process for preparing the same” (priority 1994, dated 1996).

The test system of data set [1] is P388 leukemia. As to conditions: animals bearing P388 leukemia; cited from earlier work.
The subject of data set [2] is L1210 leukemia. The settings on record: animals bearing L1210 leukemia; cited from earlier work.
For data set [3] the following is noted: animals; relative to MTX; cited from earlier work.
The subject of data set [4] is H35 hepatoma cells. The experiment in a line: Growth inhibition of H35 hepatoma cells in culture. In kind it is cell-based. As to conditions: H35 hepatoma cells in culture, identical conditions; read-out: l50 value for growth inhibition (Gl50). The procedure: (§1) Independent, further evidences to the identity of L-MDAM as the biologically active enantiomer of the racemic mixture of D,L-MDAM (previously described as MDAM; Ref, U.S. Pat. No. 4,996,207) was obtained by the following data. […] The cytotoxicity of L-MDAM versus D,L-MDAM was also compared. […] The l50 value for growth inhibition (Gl50) was 39 nM for D,L-MDAM. […] Taken together, these unexpected and novel results establish that the biologically active compound present in the racemic mixture of MDAM is the L-enantiomer described in claim number 1.

For data set [5], the target named is T1, Recombinant Human Dihydrofolate Reductase (Homo sapiens, UniProt P00374).
T1 sequence (P00374 1-187): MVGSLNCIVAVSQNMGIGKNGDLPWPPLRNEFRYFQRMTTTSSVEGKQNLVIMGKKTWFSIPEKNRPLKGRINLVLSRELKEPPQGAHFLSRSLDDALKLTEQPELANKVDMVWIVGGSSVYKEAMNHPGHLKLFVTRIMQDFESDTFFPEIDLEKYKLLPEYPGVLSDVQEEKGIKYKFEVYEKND
In words: Inhibition of recombinant human dihydrofolate reductase, spectrophotometric enzyme assay. The format is biochemical. As for the experimental part: Enzyme assay was performed spectrophotometrically in a solution containin
50 μM dihydrofolate, 80 μM NADPH, 0.05 M Tris HCl. 0.01 M
2mercaptoethanol and 0.001 M EDTA at pH 7.4 at 30°. The reaction
Pure human recombinant enzyme was used.

Data set [6] has as its system Human HCT-8 Ileocecal Xenograft. In words: Antitumor activity by I.V. push, daily × 5, against human HCT-8 ileocecal xenograft. The settings on record: for CR: Complete Regression / MIR: Maximum inhibitory rate / PR: Partial Regression / TD: Tumor doubling time: i.v. push daily × 5. The source says: [M. G. Nair and Ann Abraham, U.S. Pat. No. 4,996,207 (1991); M. G. Nair, U.S. Pat. No. 5,073,554 (1991 )]. […] [Ann Abraham, M. G. Nair, et al. Advanced in Exp. Med. and Biol. 663-666 (1993)].
MIR: Maximum inhibitory rate. TD: Tumor doubling time.
CR: Complete Regression. PR Partial Regression.
(§2) MWL: Maximum Weight Loss.

In data set [7] the test system is human tumor cell lines in culture. In words: Human Tumor Disease Oriented in vitro screen, panel as a whole. The format is cell-based. The settings on record: relative to methotrexate, or enantiomer comparison. As for the experimental part:
Further, by analogy to methotrexate (rheumatrex) L-MDAM should be useful in the treatment of autoimmune diseases such as rheumatoid arthritis and inflammatory diseases such as asthma.
A 48 h continuous drug exposure protocol was used combined with an SR13
protein assay to estimate cell growth or viability.

Data set [8] concerns Human HCT-8 Ileocecal Xenograft. In words: Antitumor activity by continuous i.v. infusion (C.I.) × 5d against human HCT-8 ileocecal xenograft. In kind it is in vivo, human (xenograft in nude mice). The settings on record: C.I. × 5d.
From the text: Antitumor Activity of MDAM by C.I. × 5d
against HUMAN HCT-8 Ileocecal Xenograft
MIR: Maximum inhibitory rate.
TD: Tumor doubling time.
CR: Complete Regression.
PR: Partial Regression.
as §2

Data set [9] relates to transport of radiolabeled folinic acid to H35 hepatoma cells. In words: Inhibition of transport of radiolabeled folinic acid to H35 hepatoma cells. The format is cell-based. The settings on record: H35 hepatoma cells; read-out: l50 value, inhibition of transport of radiolabeled folinic acid. As for the experimental part: as §1
[10] abbreviates: single iv push daily for 5 days at the maximum tolerated dose, nude mice.

For `C=C(CC(NC(=O)c1ccc(CCc2cnc3nc(N)nc(N)c3n2)cc1)C(=O)O)C(=O)O` (racemic) [D,L-MDAM, γ-methylene-10-deazaaminopterin], the “in vivo antitumor activity relative to MTX” value in data set [1] and in data set [2] was “superior in vivo antitumor activity relative to the polyglutamylatable MTX” in each case. In data set [3], the tolerability entry is on record as “tolerated by animals at higher doses”. The IC50 worked out at 39 nM in [4]; 44 nM in [5] (50 μM dihydrofolate, 80 μM NADPH, pH 7.4, 30°); 5500 nM in [9]. For the same molecule, the “IC50 Compound/IC50 MTX” value in data set [5] (ratio to MTX) worked out at 2.58. The “CR: Complete Regression” value in data set [6] (30 mg/kg) amounted to 0%; in data set [6] (40 mg/kg) it was 25%; in data set [6] (50 mg/kg), 25%; in data set [8] (0.5 mg/kg), 0%; in [8] (1 mg/kg), 0%; in data set [8] (2 mg/kg(/day)), 38%. Further, the “MIR: Maximum inhibitory rate” value in data set [6] (30 mg/kg) came out at 58.8 ± 9.2%; in data set [6] (40 mg/kg) it was 79.2 ± 7.5%; in data set [6] (50 mg/kg), 79.2 ± 6.2%; in data set [8] (0.5 mg/kg), 49.8 ± 8.2%; in data set [8] (1 mg/kg), 56.4 ± 7.8%; in data set [8] (2 mg/kg), 81.7 ± 7.2%. For the same molecule, the “PR: Partial Regression” value in data set [6] (30 mg/kg) is 0%; in data set [6] (40 mg/kg), 25%; in [6] (50 mg/kg) it was 50%; in data set [8] (0.5 mg/kg), 0%; in data set [8] (1 mg/kg) it was 0%; in data set [8] (2 mg/kg(/day)) it was 38%. Also, the “TD: Tumor doubling time” value in data set [6] (30 mg/kg) was determined as 6.2 ± 0.9 days; in data set [6] (40 mg/kg) it was 7.1 ± 0.5 days; in data set [6] (50 mg/kg), 8.4 ± 0.4 days; in data set [8] (0.5 mg/kg), 5.3 ± 0.9 days; in [8] (1 mg/kg) it was 6.0 ± 0.7 days; in data set [8] (2 mg/kg), 12.4 ± 5.8 days. This molecule also gave an antitumor response in data set [6] (setting [10]) of 75%. This molecule also had a complete tumor regression in [6] (setting [10]) of 25%. Also, the “activity/potency in inhibiting growth of human tumor cell lines (in words)” value was “more potent activity relative to methotrexate in several tumor cell lines” in data set [7] and “equivalent or greater potency than methotrexate” in [7] (listed as MDAM).

Consider `C=C(CC(NC(=O)c1ccc(C(CC)Cc2cnc3nc(N)nc(N)c3n2)cc1)C(=O)O)C(=O)O` (centres unmarked) [MEDAM, γ-methylene-10-ethyl-10-deazaaminopterin], for which the “in vivo antitumor activity relative to MTX” value in data set [1] and in [2] was “superior in vivo antitumor activity relative to the polyglutamylatable MTX” throughout. The tolerability entry in [3] was “tolerated by animals at higher doses”.
